{"source": "patent US4256883A", "about": "“Pyridoza prostacyclin analogues and N-oxides thereof” (Research Corporation, priority 1979, dated 1981)", "key": {"[1]": {"test_system": "human and rabbit citrated platelet-rich plasma", "experiment": "Effects on platelet aggregation (citrated platelet-rich plasma, chronolog aggregometer, 37°)", "assay_type": "cell-based", "conditions": "for Biological Activity: Platelet Aggregation (in words): inhibition of aggregation induced by 2 uM ADP, human and rabbit platelet-rich plasma, 37°", "procedure": "Effects of prostacyclin analogs on platelet aggregation were evaluated using human and rabbit citrated platelet-rich plasma in a chronolog aggregometer at 37°."}, "[2]": {"test_system": "isolated perfused cat coronary arteries", "experiment": "Effects on isolated perfused cat coronary arteries (perfusion pressure)", "conditions": "for Biological Activity: Cat Coronary Artery (in words): isolated perfused right coronary artery, 37° C., Krebs-Henseleit", "procedure": "Effects of prostacyclin analogs on isolated perfused cat coronary arteries were measured as follows.\nCats of either sex (2.5-3.5 kg) were anesthetized with sodium pentobarbital (30 mg/kg) given intravenously. […] A 20-gauge stainless steel cannula was inserted into the right coronary artery via the coronary ostium. Distal to the cannula, approximately 1 cm of coronary artery was dissected free of surrounding tissue. The section of right coronary artery with the cannula in place was excised from the heart and immediately transferred to a constant flow perfusion apparatus.\nThe perfusion apparatus consists of a reservoir containing 20 ml of warm (37° C.) oxygenated (95% O2 +5% CO2) K-H solution which bathes the coronary artery and serves as recirculating perfusate. An increase in perfusion pressure indicates vasoconstriction, whereas a decrease in perfusion pressure signifies vasodilation. Following an initial 1 hr. equilibrium period, vascular responsiveness was established by adding 25 mM KCl. After washing with fresh K-H solution for 20-30 mins., the preparation achieved a relatively constant low basal tone. […] Fresh K-H dilutions of stock prostacyclin analog concentrations were added to the perfusate reservoir in 0.1-0.2 ml volumes."}, "[3]": {"conditions": "background; Bundy, Tetrahedron Letters, 1371 (1978); cited from earlier work"}, "[4]": {"test_system": "blood platelet aggregation", "conditions": "background statement, cited from earlier work"}, "blood vessels / arteries": {"test_system": "blood vessels / arteries", "conditions": "background statement; cited from earlier work"}, "[5]": {"test_system": "blood platelets and arteries", "conditions": "prior-art analogues, comparison by inventors; cited from earlier work"}, "[6]": {"experiment": "Stability of free acid XXIV in aqueous solutions at 25° C.", "assay_type": "physicochemical", "procedure": "Free acid XXIV was stable in aqueous solutions at 25° C. for at least 30 days."}, "[7]": {"conditions": "number in parentheses, not explained, natural prostacyclin = 1"}}, "note": "Entries after “also recorded” stand apart in the source; their conditions may differ. Like-named read-outs stand apart in the source and are kept apart here."}
{"compound": "6, 9-pyridaza prostacyclin, N-oxides [N-oxides XXV]", "values": [{"measurement": "t1/2 Saline (25°)", "value": "> 24", "unit": "h"}, {"measurement": "Biological Activity: Platelet Aggregation (in words)", "setting": "[1]", "value": "Small effect"}, {"measurement": "Biological Activity: Cat Coronary Artery (in words)", "setting": "[2]", "value": "Small effect"}]}
{"compound": "7,8-dihydro-6,9-pyridaza prostacyclin [XXIII]", "values": [{"measurement": "Biological Activity: Platelet Aggregation (in words)", "setting": "[1]", "value": "Inhibitor (Potent)"}, {"measurement": "Biological Activity: Platelet Aggregation, number in parentheses", "setting": "[1]; [7]", "value": 0.1}, {"measurement": "Biological Activity: Cat Coronary Artery (in words)", "setting": "[2]", "value": "Dilator (Potent)"}, {"measurement": "Biological Activity: Cat Coronary Artery, number in parentheses", "setting": "[2]; [7]", "value": 0.1}]}
{"compound": "CCCCC[C@H](O)/C=C/[C@@H]1[C@H]2CC(CCCCC(=O)O)=N[C@H]2C[C@H]1O", "note": "[IV]", "values": [{"measurement": "stability (in words)", "setting": "[3]", "value": "high stability"}, {"measurement": "effect on blood platelet aggregation (in words)", "setting": "[4]", "value": "potency in inhibiting platelet aggregation"}]}
{"compound": "CCCCC[C@H](O)/C=C/[C@@H]1[C@H]2C/C(=C/CCCC(=O)O)O[C@H]2C[C@H]1O", "note": "[Natural prostacyclin, 6,9α-oxido-11α,15α-dihydroxyprosta (Z)5, E(13)-dienoic acid]", "values": [{"measurement": "effect on blood vessels / arteries (in words)", "setting": "blood vessels / arteries", "value": "powerful action as a dilator of blood vessels"}, {"measurement": "Biological Activity: Platelet Aggregation (in words)", "setting": "[1]", "value": "Inhibitor (Potent)"}, {"measurement": "half-life", "setting": "t1/2 in saline at 25°", "value": 0.0333, "unit": "h"}, {"measurement": "Biological Activity: Cat Coronary Artery (in words)", "setting": "[2]", "value": "Dilator (Potent)"}, {"measurement": "effect on blood platelet aggregation (in words)", "setting": "[4]; listed as Prostacyclin", "value": "most potent inhibitor of blood platelet aggregation of all the prostaglandins discovered to date"}, {"measurement": "effect on blood platelet aggregation (in words)", "setting": "[4]; listed as prostacyclin", "value": "destroys platelet aggregates after they have formed"}]}
{"compound": "CCCCC[C@H](O)/C=C/[C@H]1O[C@H]2C[C@H](O2)[C@@H]1C/C=C\\CCCC(=O)O", "note": "[Thromboxane A2]", "values": [{"measurement": "effect on blood vessels / arteries (in words)", "setting": "blood vessels / arteries", "value": "powerful constrictor of arteries"}, {"measurement": "effect on blood platelet aggregation (in words)", "setting": "[4]", "value": "causes platelet aggregation"}]}
{"compound": "CCCCC[C@H](O)/C=C/[C@@H]1[C@H]2CC(CCCCC(=O)O)O[C@H]2C[C@H]1O", "note": "(stereo partly shown) [VI, dihydroprostacyclin]", "values": [{"measurement": "biological activity relative to prostacyclin (in words)", "setting": "[5]", "value": "somewhat less, active; also recorded: less biological activity"}]}
{"compound": "CCCCC[C@H](O)/C=C/[C@@H]1[C@H]2CC(/C=C/CCC(=O)O)O[C@H]2C[C@H]1O", "note": "(stereo partly shown) [VII, (4E)--isoprostacyclin]", "values": [{"measurement": "biological activity relative to prostacyclin (in words)", "setting": "[5]", "value": "somewhat less, active; also recorded: less biological activity"}]}
{"compound": "CCCCC[C@H](O)/C=C/[C@@H]1[C@H]2CCC(CCCC(=O)O)=N[C@H]2C[C@H]1O", "note": "[V]", "values": [{"measurement": "stability (in words)", "setting": "[3]", "value": "high stability"}, {"measurement": "effect on blood platelet aggregation (in words)", "setting": "[4]", "value": "potency in inhibiting platelet aggregation"}]}
{"compound": "CCCCC[C@H](O)/C=C/[C@@H]1c2cc(CCCCC(=O)O)nnc2C[C@H]1O", "note": "[XXIV, 6,9-pyridaza prostacyclin, free acid]", "values": [{"measurement": "Stability in aqueous solutions (stable for at least)", "setting": "[6]", "value": "at least 30 days"}, {"measurement": "Biological Activity: Platelet Aggregation (in words)", "setting": "[1]", "value": "Inhibitor (Potent)"}, {"measurement": "half-life", "setting": "t1/2 in saline at 25°", "value": "> 24", "unit": "h"}, {"measurement": "Biological Activity: Cat Coronary Artery (in words)", "setting": "[2]", "value": "Dilator (Potent)"}]}
